The results in this text go back to US9018173B2, “Materials and methods for suppressing inflammatory and neuropathic pain” (Indiana University Research and Technology Corp., priority 2010, dated 2015).

For data set [1], the system named is motor coordination. Briefly: Rotarod test for motor coordination. The settings on record: 10 and 50 mg/kg i.p. The class given is in vivo, mouse (C57BL6). The method, then:
Rotarod test for motor coordination. The rotarod test was performed as described previously (Onyszchuk, G., He, Y. Y., Berman, N. E., & Brooks, W. M. Detrimental effects of aging on outcome from traumatic brain injury: a behavioral, magnetic resonance imaging, and histological study in mice. J. Neurotrauma. 25, 153-171 (2008)) with slight modifications. Briefly, the latency to fall off a rotating rod was measured at two different rotational accelerations (fast and slow). The rotarod device (IITC Life Science, Inc., Woodland Hills, Calif., USA) consists of a metal rod with hard plastic drums (diameter: 1.25 in) in each of five individual lanes. For slow acceleration, the device was accelerated from 1 rpm to 18 rpm over 90 seconds, with each trial lasting a maximum of 120 seconds. For fast acceleration, the device was accelerated from 1 rpm to 30 rpm over 90 seconds, with each trial lasting a maximum of 120 seconds. The trials ended when the mouse (C57BL6) either fell off the rod or clung to the rod as it made one complete rotation. The rotarod tests were performed before the injection to score the baseline latencies for each animal. These trials also served to acclimate the animals to the test paradigm. […] Performance was evaluated 3 days following injection.
(In the rotarod test animals must keep their balance on a rotating rod.)

For data set [2], the system named is capsaicin-evoked nocifensive behavior. Briefly: Capsaicin eye-wipe test. Format: in vivo, rat. The settings on record: peptide alone. On the procedure:
Referring now to FIG. 16. TAT-CBD3 reduces acute, inflammatory and neuropathic pain. (FIG. 16A) Time course of number of flinches following subcutaneous (dorsal surface of paw) injection of formalin (2.5%; 50 μl saline) in animals pretreated with peptides (3-100 μM; 20 μl dorsal surface of paw) 30 min before formalin (n=4-10). (FIG. 16B) The effect of peptides on number of flinches on formalin-induced phase 1 (0-10 min) and phase 2 (15-60 min). *, p<0.05 versus formalin-injected animals. (FIG. 16C) Formalin induces paw edema. Paw thickness was measured 1 h after injection of saline, formalin, and formalin+peptides (100 μM). *, p<0.05 versus saline-injected animals. (FIG. 16D) Pretreatment with TAT-CBD3 attenuates capsaicin-evoked nocifensive behavior. […]
Eye-wipe test. […] TAT CBD3 peptide, TAT control peptide or vehicle was pipetted directly into the right eye in a volume of 40 μl and the resulting nocifensive behavior was measured. […] This nocifensive behavior was recorded for five minutes and followed by capsaicin (3 μM in 40 μl saline) application into the pretreated eye. Nocifensive behavior was again quantified for 5 minutes following capsaicin application, as described previously. […] Significant differences between groups were assessed by two-way analysis of variance with Bonferroni post-tests. Data were analyzed with GraphPad Prism 4.0 (GraphPad, San Diego, Calif., USA). […]

Data set [3] deals with anxiety-associated behavior. Briefly: Light-Dark Box test (LDBT). Format: in vivo, C57BL6 mice. The settings on record: for Light-Dark Box: Dark box latency to exit / Light-Dark Box: Light box entries: C57BL6 mice, 1 h after injection, 5 min test. On the procedure: The light-dark box test and the elevated plus maze were used as measures of anxiety-associated behaviors. The tail suspension test was performed to evaluate despair- and depression-associated behavior. Anxiety-behavior testing Anxiety occurs when there is conflict between risk and reward. The Light-Dark Box test (LDBT) and the elevated plus maze (EPM) are accepted tests of anxiety-associated behavior that assess the conflict mice have against hiding in enclosed dark areas (i.e., dark box or closed arm) and their tendency to explore novel environments (i.e., white box or open arm). Lalonde, R. & Strazielle, C. […] J. Neurosci. Methods. 171, 48-52 (2008). These tests are also sensitive to anxiolytic drug treatments. Light-Dark Box test as a measure of anxiety-associated behavior. For the light-dark box test (LDBT), there were two adjoined light and dark compartments boxes with a 7 cm square opening to allow mice to move between them. The black box was covered (20 cm×40 cm×30 cm height) and the white box (20 cm×40 cm×30 cm height) was open and illuminated (40 W). Each mouse was placed into the white compartment and the white compartment was video recorded for later analyses using ANY-maze software (version 4.75, Stoelting, Wood Dale, Ill.) which is a video tracking system designed to automate testing in behavioral experiments. The main parameters were duration of time spent in the light box; the latency to enter the dark box; and the number of transitions between the light and dark box.

Data set [4] has as its system cortical layer V pyramidal neurons. Put plainly: Cortical slice recordings of evoked EPSCs. The class given is cell-based, CD1 mice. The settings on record: 10 μM.

Residues, ends and D or L forms follow the SMILES beside them.

As to `CC(C)C[C@H](NC(=O)CNC(=O)[C@H](CCCNC(=N)N)NC(=O)[C@@H]1CCCN1C(=O)[C@@H](NC(=O)CNC(=O)[C@H](CCCNC(=N)N)NC(=O)[C@H](CC(C)C)NC(=O)[C@H](CCC(=O)O)NC(=O)[C@H](C)NC(=O)[C@H](CC(C)C)NC(=O)[C@H](CCCNC(=N)N)NC(=O)[C@H](CO)NC(=O)[C@H](CCCNC(=N)N)NC(=O)[C@H](C)NC(=O)[C@H](CCCNC(=N)N)NC(=O)[C@H](CCCNC(=N)N)NC(=O)[C@H](CCCNC(=N)N)NC(=O)[C@H](CCC(N)=O)NC(=O)[C@H](CCCNC(=N)N)NC(=O)[C@H](CCCNC(=N)N)NC(=O)[C@H](CCCCN)NC(=O)[C@H](CCCCN)NC(=O)[C@H](CCCNC(=N)N)NC(=O)CNC(=O)[C@@H](N)Cc1ccc(O)cc1)C(C)C)C(=O)O` [TAT-CBD3] (H-YGRKKRRQRRRARSRLAELRGVPRGL-OH; N-terminus and C-terminus assumed), the accelerating rotarod performance result in data set [1] is given as “had no effect in the accelerating rotarod test”. In addition, in data set [2], the “nocifensive behavior on application alone to the cornea” value is on record as “did not induce nocifensive behavior”. For the same compound, the “LDBT number of transitions between the light and dark box” value in data set [3] (1 mg/kg, compared to TAT-Scramble) was “increased”. Besides, the “Light-Dark Box: Dark box latency to exit” value came out at 66.0 ± 17.3 s in data set [3] (0.1 mg/kg i.p.), 36.9 ± 5.8 s in data set [3] (1 mg/kg i.p.) and 49.5 ± 9.6 s in data set [3] (10 mg/kg i.p.). Besides, the “Light-Dark Box: Light box entries” value in data set [3] (0.1 mg/kg i.p.) stood at 10.6 ± 1.2; in data set [3] (1 mg/kg i.p.) it was 13.5 ± 1.1; in data set [3] (10 mg/kg i.p.) it was 11.5 ± 1.2.
Regarding ARSRLAELRGVPRGL (CBD3), the “paired-pulse ratio (PPR)” value in data set [4] is given as “increased pair pulse ratios”.
